# Laboratory results: the supplement of paper PMC2824726
# “And” between values parts separate entries of the source, which are not always exact repeats. Identical values can stand only once.
# Tested on: MDA-MB-231
# Assay: shRNA barcode abundance ratio t_end/t_zero (depletion over 4 weeks of proliferation) (log2 ratio); higher = less depletion (weaker anti-proliferative effect of the shRNA)
# Details: time after t zero 28 days
# Method: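 Pooled lentiviral negative-selection screen of 305 pGIPZ shRNAs (Open Biosystems V2LHS clones; the 21-nt half-hairpin sense stem is embedded in a mir-30 scaffold) in MDA-MB-231 breast carcinoma cells, infected at MOI 0.3 with 0.5 ug/ml puromycin selection. Barcode abundance was read on barcode tiling microarrays (six 25-nt probes per 60-nt barcode) at t_zero (5 days post-infection) and t_end (33 days; 28 days of culture after t_zero). Values are median-normalised t_end/t_zero signal ratios, averaged over the tiling probes that passed a 10-fold background filter, from three biological replicates.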
row,Sequence,shRNA barcode abundance ratio t end/t zero (log2)
1,AAGCGTGCTCTCCGAAGATAA (targeted gene: SORT1),0.237
2,ACAGATATTTACTTCTGCAAA (targeted gene: CD28),0.143
3,ACAGTTTGAGTCAACTAGAAT (targeted gene: CD28),0.508
4,ACCCATTCTTCCCGTTCTTAA (targeted gene: HDAC1),0.135
5,ACCTGCAGAATAATAAAGTCA (targeted gene: S100A8),-0.295
6,ACGCTCTGTGGCCAGTGTAAA (targeted gene: SULF2),0.249
7,ACGCTGATCGAGAATGGAGAA (targeted gene: NUP62),-0.334
8,ACTCTAATCTCCACATTTATA (targeted gene: XIAP),0.0933
9,ACTGCTGTACTGGTTTGCAAA (targeted gene: BNIP2),0.104
10,ACTTACACTTAGAAATTAAAT (targeted gene: XIAP),0.473
11,ACTTCAGAAATGGCACGATAA (targeted gene: AATF),0.24
12,AGACATAAAGCCATCTCTTAT (targeted gene: NME5),0.11
13,AGAGAGAACTGCTCAGTAATT (targeted gene: BRE),0.237
14,AGCATTGTCATGAGCTTAATA (targeted gene: API5),0.169
15,AGGCAATTTATCTTGATGTGA (targeted gene: FAIM3),0.137
16,AGGCCTAGAGGTAACCAATAA (targeted gene: PRDX2),-0.0855
17,CAACGGAACTTGTTTGCTCTT (targeted gene: SOCS3),-0.536
18,CACCAGCACTTTATACACTTC (targeted gene: RHOC),0.652
19,CAGCTTTCAGTCAGATGTATA (targeted gene: BRAF),0.489

row,Sequence,shRNA barcode abundance ratio t end/t zero (log2)
1,CATCTCAGTATGCATGGTATA (targeted gene: CFLAR),-0.976
2,CCAAAGCATTTCATTGAGAAT (targeted gene: TOPORS),-0.193
3,CCAAATTATGTGTTTCCGAAA (targeted gene: IGF1R),0.502
4,CCAAATTGTGTTTGATGGATT (targeted gene: ESR1),0.202
5,CCAACACGTTTGAACTGAAAT (targeted gene: BIRC3),0.578
6,CCAACATATCTCACTCTAGAA (targeted gene: BARD1),0.531
7,CCAACCACTTCATTCTTGAAA (targeted gene: IL10),0.022 and 0.0479
8,CCAACTAATCTTCGAATCGAA (targeted gene: SOCS2),0.157
9,CCAAGTAGACTCACTCCTTAA (targeted gene: BAG4),-0.102
10,CCAATGATGCTGCTCAAGTTA (targeted gene: ABCB1),0.272
11,CCAATTCAAGTGATCCGCAAA (targeted gene: BAG3),0.175
12,CCACAGATGTTCATAGACAAT (targeted gene: NFKB1),0.547
13,CCACCCTGAGCCATTATCTAA (targeted gene: PSEN1),0.146
14,CCACCTGGACTCCTATGAGAA (targeted gene: SOCS3),0.145
15,CCACGCGACATCCAATCCATA (targeted gene: IL3),-0.0678
16,CCAGAAGAGCCTATTACATCT (targeted gene: SOCS3),0.25
17,CCAGAATCTCTGGGAATATAA (targeted gene: BFAR),-0.109
18,CCAGACTCAGTTCACTGCAAA (targeted gene: MALT1),-0.00481
